Data: ChEMBL document CHEMBL1759920, “C20-trifluoro-5-oxo-ETE: a metabolically stable 5-oxo-ETE derivative” (Bioorg Med Chem Lett, 2011)
The source made the active and inactive calls. The rule behind the calls is not given here.

Tests used:
Oxoeicosanoid receptor 1 [1] = target: T1, Oxoeicosanoid receptor 1 (Homo sapiens, UniProt Q8TDS5); experiment: Desensitization of 5-oxo-ETE receptor in indo-1-labeled human neutrophils assessed as inhibition of 5-oxo-ETE-induced calcium mobilization; assay type: functional
Neutrophil [2] = experiment: Induction of intracellular calcium level in indo-1-labeled human neutrophils cells assessed as calcium mobilization relative to 5-oxo-ETE; assay type: functional
Oxoeicosanoid receptor 1 [3] = target: T1, Oxoeicosanoid receptor 1; experiment: Agonist activity at 5-oxo-ETE receptor in indo-1-labeled human neutrophils assessed as stimulation intracellular calcium level at 100 nM followed by 5-oxo-ETE addition at 2.5 mins in presence of digitonin added at 3.5 mins; assay type: functional, cell-based
Neutrophil [4] = experiment: Induction of intracellular calcium level in indo-1-labeled human neutrophils cells assessed as calcium mobilization; assay type: functional, cell-based

T1 sequence (Q8TDS5 whole entry): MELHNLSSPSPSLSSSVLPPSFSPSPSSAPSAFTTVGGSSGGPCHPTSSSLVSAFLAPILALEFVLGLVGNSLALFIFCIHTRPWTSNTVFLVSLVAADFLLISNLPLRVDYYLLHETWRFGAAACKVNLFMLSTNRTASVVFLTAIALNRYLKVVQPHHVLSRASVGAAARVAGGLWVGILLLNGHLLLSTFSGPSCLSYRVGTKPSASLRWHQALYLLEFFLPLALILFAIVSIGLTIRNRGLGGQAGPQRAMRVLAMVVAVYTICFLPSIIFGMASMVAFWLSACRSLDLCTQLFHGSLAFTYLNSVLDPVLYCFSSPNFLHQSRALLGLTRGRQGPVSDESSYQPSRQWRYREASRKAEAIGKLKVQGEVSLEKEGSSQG

| SMILES | IC50 (Oxoeicosanoid receptor 1 [1]) [nM] | Activity (Neutrophil [2]) [%] | Activity (Oxoeicosanoid receptor 1 [3]) | EC50 (Neutrophil [4]) [nM] |
| --- | --- | --- | --- | --- |
| O=C(O)CCCC(=O)/C=C/C=C\C/C=C\C/C=C\CCCCC(F)(F)F | 7.5 | 50 | Active |  |
| CCCCC/C=C\C/C=C\C/C=C\C=C\C(=O)CCCC(=O)O [5-OXO-ETE] | 3 |  |  | 4 |
